Values quoted from earlier work in patent publication US11103473B2, “Treatment and prevention of autism and autism spectrum disorders” (ASDERA LLC, priority 2013, dated 2021).
Where two headings read alike, the source gives them in different places.

How the values were obtained:
[1] = not given; remark: listed apart in the source
Mouse: writhing = conditions: relative to parent
[2] = for ulcerative index (UI): equimolar dose, prodrug vs parent NSAID
[3] = not given; remark: listed apart in the source
[4] = prodrug vs parent DCF
[5] = pH 7.1
[6] = for Cmax (μg/ml) / Tmax (h) / % excreted (5 d) / t1/2 (h): mean; for Cmax (μg/ml) / Tmax (h): Ito (1994); for % excreted (5 d): Sato (1997)
[7] = test system: animal models of seizures; conditions: in vivo
[8] = not given; remark: listed apart in the source
albumin = albumin (Homo sapiens, UniProt P02768)
Chain of albumin (P02768 25-609): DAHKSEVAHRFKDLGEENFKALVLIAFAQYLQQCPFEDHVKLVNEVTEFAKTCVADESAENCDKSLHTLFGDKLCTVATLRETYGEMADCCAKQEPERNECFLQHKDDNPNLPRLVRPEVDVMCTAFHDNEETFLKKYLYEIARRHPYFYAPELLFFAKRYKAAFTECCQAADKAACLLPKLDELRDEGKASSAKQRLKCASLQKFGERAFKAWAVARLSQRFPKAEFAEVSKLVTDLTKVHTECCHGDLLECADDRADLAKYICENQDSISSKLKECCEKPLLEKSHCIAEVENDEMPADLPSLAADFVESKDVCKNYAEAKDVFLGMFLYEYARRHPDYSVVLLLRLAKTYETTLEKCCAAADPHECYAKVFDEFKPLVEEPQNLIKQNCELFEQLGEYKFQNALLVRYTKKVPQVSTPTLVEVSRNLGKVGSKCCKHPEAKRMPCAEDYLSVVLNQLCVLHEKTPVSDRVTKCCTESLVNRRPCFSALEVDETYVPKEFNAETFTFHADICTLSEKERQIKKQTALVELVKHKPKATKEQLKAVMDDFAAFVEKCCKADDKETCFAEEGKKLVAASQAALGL

[9] = relative to parent, animal models

## Cc1cccc(Nc2ccccc2C(=O)O[C@@H]2C[C@H](C)CC[C@H]2C(C)C)c1C [MFA-menthol]
Simulated intestinal fluid
  t1/2 [h] pH 7.5 (SIF): 8.9 h
Rat: Hint paw; relative to parent
  Rat: Hint paw vs MFA: 115%
[1]; simulated gastric fluid
  t1/2 [h] pH 1.2 (SGF): 20.8 h
Mouse: writhing
  Mouse: writhing vs MFA: 115%
[2]; in vivo
  ulcer index vs parent drug: better ulcer index than the parent drug
[2]; [9]
  GI risk vs MFA: 50%

## CC(C)Cc1ccc(C(C)C(=O)O)cc1 (stereo not shown) [ibuprofen, 2-[4-(2-methylpropyl)phenyl]propanoic acid]
[2]
  ulcerative index (UI): 45.8

## CC(=O)Nc1ccc(OC(=O)c2ccccc2Nc2cccc(C)c2C)cc1 [MFA-APAP Without spacer]
[3]
  t1/2 [h] pH 7.5 (serum/plasma): “shorter
Rat: Hint paw; relative to parent
  Rat: Hint paw vs MFA: “better”
[1]; simulated gi fluid
  t1/2 [h] pH 1.2 (SGF): “suffi-
[2]; in vivo
  GI risk vs MFA: “no

## O=C(O)Cc1ccccc1Nc1c(Cl)cccc1Cl [DCF, 2-(2-[(2,6-dichlorophenyl)amino]phenyl)acetic acid]
[4]
  Cmax: 20190 ± 6010 ng/mL
[2]; 50 mg/kg
  gastric damage: severe gastric damage
[2]; 200 mg/kg
  gastric damage: markedly more damage

## Cc1cccc(Nc2ccccc2C(=O)OCc2c(C(C)C)c(=O)n(-c3ccccc3)n2C)c1C [MFA-PPA Without spacer]
Simulated gi fluid, pH 7.4
  half-life in simulated intestinal fluid: 8.98 h
Simulated gi fluid
  t1/2 [h] pH 7.5 (SIF): 9.0 h
Rat: Hint paw; @2-6 h
  Rat: Hint paw vs MFA: ≈60%
[1]; simulated gi fluid
  t1/2 [h] pH 1.2 (SGF): 18.7 h
[1]; simulated gi fluid, pH 1.2
  half-life in simulated gastric fluid: 18.69 h
Mouse: writhing
  Mouse: writhing vs MFA: 63%
[2]; in vivo
  GI risk vs MFA: 30%
  average number of ulcers: 1.00

## CC(=O)Oc1ccccc1C(=O)O [Aspirin, 2-(acetyloxy)benzoic acid]
[2]
  ulcerative index (UI): 57.4

## CC(C)c1c(CO)n(C)n(-c2ccccc2)c1=O [HMP, 3-hydroxymethyl propyphenazon]
[2]; in vivo
  average number of ulcers: 1.25

## Cc1cccc(Nc2ccccc2C(=O)O)c1C [MFA, 2-[(2,3-dimethylphenyl)amino]benzoic acid]
[5]
  water solubility: 0.004%
[6]; Healthy Adults (18-56 yr)
  Cmax: 10000 ng/mL
  Tmax: 2.0 h
  t1/2: 2 to 4 h
[6]; Preterm Children (0-5 d)
  Cmax (μg/ml): 3.8 (12) μg/ml
  Tmax (h): 8.0 (12) h
  % excreted (5 d): 16.6 (5) %
[6]; Preterm Children (0-5 d), bottom: Sato (1997)
  t1/2 (h): 27.0 (5) h
[6]; Preterm Children (0-5 d), top: Ito (1994)
  t1/2 (h): 21.7 (12) h
[6]; Preterm Children (6-22 d)
  Cmax (μg/ml): 3.7 (5) μg/ml
  Tmax (h): 6.8 (5) h
  % excreted (5 d): 45.7 (1) %
[6]; Preterm Children (6-22 d), bottom: Sato (1997)
  t1/2 (h): 8.4 (1) h
[6]; Preterm Children (6-22 d), top: Ito (1994)
  t1/2 (h): 11.6 (5) h
[7]
  efficacy in animal models of seizures: shown efficacy
[8]; 500 mg oral dose
  apparent volume of distribution (Vzss/F): 1.06 L/kg
[8]; adults
  time of peak levels (PL): 2 h
[8]; adults, 1 g 4x daily, reached on the 2nd day
  steady-state concentrations: 20 µg/mL
[8]; after a 1 g oral dose
  plasma PL: 10 to 20 µg/mL
  time to plasma PL: 2 to 4 h
[8]; after multiple doses
  drug accumulation: no evidence of drug accumulation
[8]; in vivo
  elimination half-life: ~2 h and ≈ 2 h
[8]; mainly unconjugated 3-carboxy MFA
  fecal route of elimination, share of the dose: ≤ 20%
[8]; share of MFA dose per species
  dose excreted into the urine as glucuronide of: 6%
[8]; total, primarily as glucuronides
  dose excreted into the urine: Approximately 52%
[8]; two 500 mg single oral dose studies
  mean absorption: 30.5 µg/h/mL
[2]; in vivo
  average number of ulcers: 3.17
albumin
  bound to albumin: > 90%

## Cc1ccc(C(C)C)c(OC(=O)c2ccccc2Nc2cccc(C)c2C)c1 [MFA-thymol]
Simulated gi fluid
  t1/2 [h] pH 7.5 (SIF): 7.1 h
Rat: Hint paw; relative to parent
  Rat: Hint paw vs MFA: 125%
[1]; simulated gi fluid
  t1/2 [h] pH 1.2 (SGF): 23.1 h
Mouse: writhing
  Mouse: writhing vs MFA: 150%
[2]; in vivo
  ulcer index vs parent drug: better ulcer index than the parent drug
[2]; [9]
  GI risk vs MFA: 60%
